Reference: ChEMBL document CHEMBL1122998, “New antihistaminic theophylline or theobromine derivatives” (1985)

Assays:
[1] = tested on: Cavia porcellus; experiment: Percent decrease in bronchodilator activity against histamine-induced bronchospasm reaction in guinea pig by intraveneous administration at dose 10.5 ug/kg
[2] = tested on: Cavia porcellus; experiment: Percentage decrease in bronchodilator activity against serotonin-induced bronchospasm reaction in guinea pig by intraveneous administration at dose 250 ug/kg; type: functional
[3] = tested on: Cavia porcellus; experiment: Percent decrease in bronchodilator activity against acetylcholine-induced bronchospasm reaction in guinea pig by intraveneous administration at dose 250 ug/kg; type: functional
[4] = tested on: Rattus norvegicus; experiment: Percentage decrease in antiallergic activity against cutaneous reaction to histamine in rat, by oral administration at a dose of 10 mg/kg; type: functional
[5] = tested on: Rattus norvegicus; experiment: Percent decrease in antiallergic activity by antigen/antibody reaction assay in rat by oral administration at a dose of 10 mg/kg; type: functional

SMILES | Decrease [1] | Decrease [2] | Decrease [3] | Decrease [4] | Decrease [5]
Cn1cnc2c1c(=O)n(CC(O)CN1CCN(CCCSc3ccc(Cl)cc3)CC1)c(=O)n2C (stereo unspecified) | 0% | 8% | 11% | 0% | 0%
COc1ccc(OCCCN2CCN(CCCn3cnc4c3c(=O)n(C)c(=O)n4C)CC2)cc1 | 60% | 0% | 25% | 0% | 0%
Cn1cnc2c1c(=O)n(CC(O)CN1CCN(CCCOc3ccccc3)CC1)c(=O)n2C (stereo unspecified) | 10% | 50% | 0% | 30% | 76%
Cn1cnc2c1c(=O)n(CC(O)CN1CCN(CCCSc3ccccc3)CC1)c(=O)n2C (stereo unspecified) | 66% | 96% | 24% | 10% | 43%
Cn1c(=O)c2c(ncn2CCC(=O)N2CCN(CCCSc3ccccc3)CC2)n(C)c1=O | 2% | 0% | 3% | 0% | 0%
Cn1c(=O)c2c(ncn2CCCN2CCN(CCCCOc3ccccc3)CC2)n(C)c1=O | 80% | 26% | 35% | 0% | 0%
COc1ccc(OCCCN2CCN(CC(O)Cn3c(=O)c4c(ncn4C)n(C)c3=O)CC2)cc1 (stereo unspecified) | 28% | 3% | 11% | 0% | 0%
Cn1c(=O)c2c(ncn2CCCN2CCN(CCOc3ccccc3)CC2)n(C)c1=O | 70% | 0% | 15% | 0% | 0%
Cn1cnc2c1c(=O)n(CCCN1CCN(CCCSc3ccc(Cl)cc3)CC1)c(=O)n2C | 0% | 47% | 27% | 12% | 17.5%
Cn1c(=O)c2c(ncn2CC(O)CN2CCN(CC(O)CSc3ccccc3)CC2)n(C)c1=O (stereo unspecified) | 89% | 0% | 0% | 29% | 0%
Cn1c(=O)c2c(ncn2CC(O)CN2CCN(CCCCSc3ccccc3)CC2)n(C)c1=O (stereo unspecified) | 13% | 0% | 34% | 0% | 0%
Cn1c(=O)c2c(ncn2CC(O)CN2CCN(CCCCOc3ccccc3)CC2)n(C)c1=O (stereo unspecified) | 82% | 22% | 45% | 0% | 0%
Cn1c(=O)c2c(ncn2CCCCCCN2CCN(CCCCSc3ccccc3)CC2)n(C)c1=O | 0% | 23% | 23% | 0% | 0%
Cn1c(=O)c2c(ncn2CCCN2CCN(CCCSc3ccc(Cl)cc3)CC2)n(C)c1=O | 25% | 0% | 0% | 0% | 0%
CN(CCCSc1ccccc1)CCN(C)CCCn1cnc2c1c(=O)n(C)c(=O)n2C | 2% | 50% | 12% |  | 
Cn1c(=O)c2c(ncn2CCCN2CCN(CCCOc3ccccc3)CC2)n(C)c1=O | 88% | 35% | 30% | 28% | 48%
Cn1c(=O)c2c(ncn2CCCN2CCN(CCCOc3ccc(Cl)cc3)CC2)n(C)c1=O | 30% | 0% | 0% | 0% | 0%

SMILES | Decrease [1] | Decrease [2] | Decrease [3] | Decrease [4] | Decrease [5]
COc1ccc(SCCCN2CCN(CCCn3cnc4c3c(=O)n(C)c(=O)n4C)CC2)cc1 | 53% | 0% | 0% |  | 
CC(C(=O)N1CCN(CCCSc2ccccc2)CC1)n1cnc2c1c(=O)n(C)c(=O)n2C (stereo unspecified) | 3% | 0% | 4% | 6% | 5%
Cc1ccc(SCCCN2CCN(CC(O)Cn3c(=O)c4c(ncn4C)n(C)c3=O)CC2)cc1 (stereo unspecified) | 10% | 42% | 29% | 4% | 11%
Cn1c(=O)c2c(ncn2CC(O)CN2CCN(CCCCSc3ccc(Cl)cc3)CC2)n(C)c1=O (stereo unspecified) | 0% | 0% | 0% | 0% | 0%
COc1cc(OCCCN2CCN(CCCn3cnc4c3c(=O)n(C)c(=O)n4C)CC2)cc(OC)c1OC | 0% | 0% | 0% |  | 
Cn1cnc2c1c(=O)n(CCCN1CCN(CCCOc3ccc(Cl)cc3)CC1)c(=O)n2C | 14% | 30% | 18% | 12.5% | 13%
Cn1c(=O)c2c(ncn2CCC(O)CCN2CCN(CCCSc3ccccc3)CC2)n(C)c1=O (stereo unspecified) | 35% | 36% | 20% | 38% | 70%
Cn1c(=O)c2c(ncn2CC(O)CN2CCCN(CCCSc3ccccc3)CC2)n(C)c1=O (stereo unspecified) | 74% | 0% | 0% | 4% | 0%
Cn1c(=O)c2c(ncn2CCCN2CCN(CCCCSc3ccccc3)CC2)n(C)c1=O | 47% | 24% | 34% | 0% | 0%
COc1ccc(OCCCN2CCN(CC(O)Cn3cnc4c3c(=O)n(C)c(=O)n4C)CC2)cc1 (stereo unspecified) | 27% | 0% | 0% | 0% | 0%
Cn1cnc2c1c(=O)n(CCCN1CCN(CCCSc3ccccc3)CC1)c(=O)n2C | 56% | 25% | 10% | 31.5% | 15%
Cn1cnc2c1c(=O)n(CC(O)CN1CCN(CCCOc3ccc(Cl)cc3)CC1)c(=O)n2C (stereo unspecified) | 19% | 11% | 14% | 24% | 23%
Cn1c(=O)c2c(ncn2CC(O)CN2CCN(CCOc3ccccc3)CC2)n(C)c1=O (stereo unspecified) | 76% | 21% | 0% | 56% | 59%
Cn1cnc2c1c(=O)n(CCCN1CCN(CC(O)CSc3ccccc3)CC1)c(=O)n2C (stereo unspecified) | 25% | 3% | 2% | 0% | 0%
Cc1ccc(SCCCN2CCN(CCCn3cnc4c3c(=O)n(C)c(=O)n4C)CC2)cc1 | 15% | 24% | 35% | 0% | 0%
CN(C)CCC(c1ccc(Cl)cc1)c1ccccn1 (stereo unspecified) [CHLORPHENIRAMINE] | 62% | 0% |  | 15% | 0%
CN1CCC(=C2c3ccccc3CC(=O)c3sccc32)CC1 [KETOTIFEN] | 10% |  |  | 90% | 64%
